Experiments:
RS4;11 cells = test: Survival of lenti-transduced cells in presence of steroids with or without HSD inhibitor (CELLTITER-GLO); type: cell-based, human; details: HSD11B2-transduced RS4;11 cells; for Effect of HSD inhibitor on steroid protection of transduced cells: DEX or PRED, carbenoxolone 1 μM and 10 μM; for Reversal of protection against dexamethasone by HSD inhibitor / Reversal of protection against prednisolone by HSD inhibitor: posaconazole 1 μM, carbenoxolone 10 μM or 1 μM
HSD11B2 = target: T1, HSD11B2 (Homo sapiens, UniProt P80365); test: Effect of HSD inhibitor on steroid degradation by HSD11B2-transduced stimulated leukocytes; type: cell-based; details: posaconazole 7 μM
T1 construct: expressed in transfected cells
T1 sequence (P80365 1-405): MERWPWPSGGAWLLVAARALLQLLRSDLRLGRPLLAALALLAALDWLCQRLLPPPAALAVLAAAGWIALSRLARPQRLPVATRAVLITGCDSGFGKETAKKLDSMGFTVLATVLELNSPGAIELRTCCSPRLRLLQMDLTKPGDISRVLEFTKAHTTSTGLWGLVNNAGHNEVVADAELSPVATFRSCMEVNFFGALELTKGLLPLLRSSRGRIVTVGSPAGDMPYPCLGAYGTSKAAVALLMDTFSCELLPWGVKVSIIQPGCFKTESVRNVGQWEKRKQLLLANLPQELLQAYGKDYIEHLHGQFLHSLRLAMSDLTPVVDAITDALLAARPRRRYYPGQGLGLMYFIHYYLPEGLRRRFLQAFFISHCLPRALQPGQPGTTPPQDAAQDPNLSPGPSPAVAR

HSD11B1 = target: T2, HSD11B1 (Homo sapiens, UniProt P28845); test: Effect of HSD inhibitor on steroid degradation by HSD11B1-transduced stimulated leukocytes; type: cell-based; details: posaconazole 7 μM
T2 construct: expressed in transfected cells
T2 sequence (P28845 whole entry): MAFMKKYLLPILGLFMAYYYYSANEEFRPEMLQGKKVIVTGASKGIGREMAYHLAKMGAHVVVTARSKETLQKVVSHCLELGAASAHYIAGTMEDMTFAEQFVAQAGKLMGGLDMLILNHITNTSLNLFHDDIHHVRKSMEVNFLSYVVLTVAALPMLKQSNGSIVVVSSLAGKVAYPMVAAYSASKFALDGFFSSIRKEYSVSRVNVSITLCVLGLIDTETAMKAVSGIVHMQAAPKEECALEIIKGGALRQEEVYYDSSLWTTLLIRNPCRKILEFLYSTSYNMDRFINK

stimulated leukocytes [1] = test: Conversion of cortisol to cortisone by transduced stimulated leukocytes, UHPLC-Mass Spectrometry; type: cell-based, human
Experimental: Human peripheral blood leukocytes (HPBL) were prepared by density gradient centrifugation of anti-coagulated human blood (Cincinnati Children's Hospital Cell Processing Core). HPBL were stimulated with CYTOSTIM™, inteleukin 2 (IL-2) in TEXMACS™ media (all reagents, Miltenyi Biotech) according to manufacturer's instructions for three days. […] After stimulation, the entire population of stimulated cells (“stimulated leukocytes”) were cryopreserved in cell freezing media which contained dimethyl sulfoxide (DMSO). Prior to experiments, cryopreserved stimulated leukocytes were thawed, washed twice and cultured in TEXMACS™ media supplemented with 10% (v/v) heat inactivated fetal bovine serum (HI-FBS, VWR). After an overnight incubation, typical cell viability post-thaw was greater than 95% as determined by Trypan blue dye exclusion. Post-thaw, cells were cultured overnight prior to transduction with lentivirus. […]
Viral copy number (VCN) was assessed on cell pellets by real-time polymerase chain reaction (RT-PCR) by extracting the genomic DNA and using primers and probes for the R-U5 region of the lentiviral vector. VCN was determined using a cGMP testing protocol conducted by the Translational Trials Support & Development Laboratory of Cincinnati Children's Hospital. […] To permit direct comparison of the intrinsic activity of each enzyme construct—independent of any variability of target cell transduction or number of transduced cells in an experimental arm—VCN values were combined with the number of live cells measured at the end of incubation to adjust data to reflect a uniform level of cells carrying the transgene.
Cortisol and cortisone levels in supernatants were quantified by the Michigan Regional Comprehensive Metabolomics Resource Core at the University of Michigan, Ann Arbor, Mich., in a delta 4 (D4-) steroid hormone assay using combined ultra-high pressure liquid chromatography and triple quadrapole (UHPLC-QQQ) mass spectrometry. […]

stimulated leukocytes [2] = test: Steroid degradation by lentivirally transduced stimulated leukocytes, steroid detected by ELISA; type: cell-based, human

| Molecule | Effect of HSD inhibitor on steroid protection of transduced cells (RS4;11 cells) | Effect of HSD inhibitor on steroid protection of transduced cells (RS4;11 cells; listed as Carbenoxolone) | Reversal of protection against dexamethasone by HSD inhibitor (RS4;11 cells) | Reversal of protection against prednisolone by HSD inhibitor (RS4;11 cells) | Inhibition of steroid degradation by HSD11B2 genes (HSD11B2, B2-Tag and wtExon1-none) (HSD11B2) | Inhibition of HSD11B1 degradation of steroids (HSD11B1) | Inhibition of HSD11B1 depletion (conversion) of prednisolone and dexamethasone (HSD11B1) | Generation of cortisone from cortisol (stimulated leukocytes [1]; UHPLC-Mass Spectrometry) | Rate of cortisol depletion indirectly calculated from cortisone production (stimulated leukocytes [1]; assuming no inter-conversion) | Rate of conversion of cortisol to cortisone (stimulated leukocytes [1]; transduced leukocytes) | Cortisol levels at end of assay (stimulated leukocytes [2]; cortisol 100 nM, ELISA) | Degradation of cortisol, prednisolone and dexamethasone (stimulated leukocytes [2]; steroid 100 nM, 18 to 24 hours, adjusted for number of transgene bearing cells) | Rate of conversion of prednisolone or dexamethasone (stimulated leukocytes [2]; transduced leukocytes) |
| --- | --- | --- | --- | --- | --- | --- | --- | --- | --- | --- | --- | --- | --- |
| CC1(C)[C@@H](OC(=O)CCC(=O)O)CC[C@]2(C)[C@H]3C(=O)C=C4[C@@H]5C[C@@](C)(C(=O)O)CC[C@]5(C)CC[C@@]4(C)[C@]3(C)CC[C@@H]12 [carbenoxolone] | reduced or eliminated | showed a dose response effect | Protection was reversed | Protection was reversed |  |  |  |  |  |  |  |  |  |
| CC[C@@H]([C@H](C)O)n1ncn(-c2ccc(N3CCN(c4ccc(OC[C@@H]5CO[C@@](Cn6cncn6)(c6ccc(F)cc6F)C5)cc4)CC3)cc2)c1=O [posaconazole] | reduced or eliminated |  | Protection was reversed | Protection was reversed | inhibited | also inhibited | strongly inhibited |  |  |  |  |  |  |
| wtExon1-none: modified HSD11B2 gene wherein approximately exon 1 was not codon modified but remained wild type (SEQ ID No.: 31) (nucleic acid, wtExon1-none) DNA: CCCCTCACTCGGCGCGATCTAGATCTCGAATCGCCAGCCCGCTGGGCCGCCATGGAGCGCTGGCCTTGGCCGTCGGGCGGCGCCTGGCTGCTCGTGGCTGCCCGCGCGCTGCTGCAGCTGCTGCGCTCAGACCTGCGTCTGGGCCGCCCGCTGCTGGCGGCGCTGGCGCTGCTGGCCGCGCTCGACTGGCTGTGCCAGCGCCTGCTGCCCCCGCCGGCCGCACTCGCCGTGCTGGCCGCCGCCGGCTGGATCGCGTTGTCCCGCCTGGCGCGCCCGCAGCGCCTGCCGGTGGCCACTCGCGCGGTGCTCATCACCGGTTGTGACTCTGGTTTTGGTAAGGAGACGGCTAAGAAACTGGACTCCATGGGTTTCACGGTGCTGGCTACCGTATTGGAGTTGAACAGCCCTGGTGCTATCGAGCTGCGTACCTGCTGCTCCCCTCGTCTAAGGCTGCTGCAGATGGACCTGACCAAACCAGGAGACATTAGCCGTGTGCTAGAGTTCACCAAGGCTCACACCACCAGCACCGGTCTGTGGGGTCTCGTCAACAACGCAGGTCACAATGAAGTAGTTGCTGATGCAGAGCTGTCTCCAGTGGCTACTTTCCGTAGCTGCATGGAGGTGAATTTCTTTGGTGCACTCGAGCTGACCAAGGGTCTCCTGCCTCTGCTGCGTAGCTCAAGGGGTCGTATCGTGACTGTGGGAAGCCCAGCAGGAGACATGCCATATCCATGCTTGGGAGCTTATGGAACCTCCAAAGCAGCTGTGGCACTACTCATGGACACATTCAGCTGTGAACTCCTTCCTTGGGGAGTCAAGGTCAGCATCATCCAGCCTGGTTGCTTCAAGACAGAGTCAGTGAGAAACGTGGGTCAGTGGGAAAAGCGTAAGCAATTGCTGCTGGCTAACCTGCCTCAAGAGCTGCTGCAGGCTTACGGTAAGGACTACATCGAGCACTTGCATGGACAGTTCCTGCACTCGCTACGTCTGGCTATGTCCGACCTCACCCCAGTTGTAGATGCTATCACAGATGCACTGCTGGCAGCTAGGCCTCGTCGTCGTTATTACCCTGGTCAGGGTCTGGGACTCATGTACTTCATCCACTACTACCTGCCTGAAGGTCTGAGGCGTCGTTTCCTGCAGGCTTTCTTCATCAGTCACTGTCTGCCTCGAGCACTGCAGCCTGGTCAGCCTGGTACTACCCCACCACAGGACGCAGCTCAGGACCCAAACCTGAGCCCTGGTCCTTCCCCAGCAGTGGCTAGGTGACCTGAAAAAGGGGTACCTTTAAGACCAATGACTTACAAGGCAGCTGTAG |  |  |  |  |  |  |  | generated cortisone | about 1,014 pg/hr/10e5 copies of the transgene | 800-1200 pg/hour/10^5 of genetically modified leukocytes | below the limit of quantitation | degraded the steroids | at least 2000 pg/hour/10^5 of genetically modified leukocytes |
